# Tests used:
# [1] = tested on: S. aureus ATCC 29213; experiment: Broth microdilution MIC assay, S. aureus; format: cell-based; settings: Staphylococcus aureus, ATCC29213; broth microdilution, 16-20 hours at 37° C.; read-out: S. aureus 29213 MIC
# Experimental: (§1) To determine the ability of test compounds to potentiate the inhibition of the growth of bacterial strains, classic cell based broth microdilution MIC assays were employed. MIC assays are performed according to CLSI methods except where otherwise noted (CLSI, 2011 and CLSI, 2009). The reference strain S. aureus ATCC 29213 and the hyper-permeable E. coli 901C were used to determine the ability of the PBP compounds to inhibit bacterial growth. Briefly, cryo-preserved bacterial cultures of clinical strains are streaked for isolation on appropriate agar medium, in this case Mueller Hinton II agar. Following incubation to allow formation of colonies these plates are sealed with parafilm and stored refrigerated for up to two weeks. For preparation of assay inocula and to ensure low variability, at least 5 colonies are picked from the agar plates with an inoculating loop and aseptically transferred to a culture tube containing 3 mL of Mueller-Hinton Broth (supplemented with divalent cations to required levels based on Manufacturers' certification). The broth culture is grown for 3-5 hours at 37° C. with shaking at 200 rpm. Meanwhile, 2-fold serial dilutions of test compounds are conducted in a 96 well plate with a final volume of 75 μL per well at 2-fold the final desired concentration. After the dilution plates are set up the growing cultures are then diluted in a cuvette containing MH II broth and the optical density is measured at 600 nm. Inocula are diluted such that 75 μL of this culture in Mueller-Hinton Broth results in a starting bacterial concentration of 5×10^5 CFU/mL when added to the dilution plates. The plates are incubated 16-20 hours at 37° C. The MIC is read visually as the lowest concentration well with no bacterial growth.
# [2] = tested on: hyper-permeable E. coli 901C; experiment: Broth microdilution MIC assay, hyper-permeable E. coli; format: cell-based; settings: Escherichia coli, read-out: E. coli 901C MIC
# Experimental: as §1
Compound,MIC [1] [µg/mL],MIC [2] [µg/mL]
"CC(C)O/N=C(\C(=O)N[C@H]1Cc2cccc(C(=O)O)c2OB1O)c1csc(N)n1 [Example 97, (R,Z)-3-(2-(2-aminothiazol-4-yl)-2-(isopropoxyimino)acetamido)-2-hydroxy-3,4-dihydro-2H-benzo[e][1,2]oxaborinine-8-carboxylic Acid]",64 to 128,> 128
"NCCn1nnc(C(=NO)C(=O)N[C@H]2Cc3cccc(C(=O)O)c3OB2O)n1 [Example 111, (R)-3-(2-(2-(2-aminoethyl)-2H-tetrazol-5-yl)-2-(hydroxyimino)acetamido)-2-hydroxy-3,4-dihydro-2H-benzo[e][1,2]oxaborinine-8-carboxylic Acid]",> 128,> 128
"CCNc1nc(/C(=N/O)C(=O)N[C@H]2Cc3cccc(C(=O)O)c3OB2O)cs1 [Example 107, (R,Z)-3-(2-(2-(ethylamino)thiazol-4-yl)-2-(hydroxyimino)acetamido)-2-hydroxy-3,4-dihydro-2H-benzo[e][1,2]oxaborinine-8-carboxylic Acid]",> 128,> 128
"O=C(O)CO/N=C(/Cn1cncn1)C(=O)N[C@H]1Cc2cccc(C(=O)O)c2OB1O [Example 112, (R,Z)-3-(2-((carboxymethoxy)imino)-3-(1H-1,2,4-triazol-1-yl)propanamido)-2-hydroxy-3,4-dihydro-2H-benzo[e][1,2]oxaborinine-8-carboxylic Acid]",> 128,> 128
"CNc1nc(/C(=N/O)C(=O)N(C)[C@H]2Cc3cccc(C(=O)O)c3OB2O)cs1 [Example 22, (R,Z)-2-hydroxy-3-(2-(hydroxyimino)-N-methyl-2-(2-(methylamino)thiazol-4-yl)acetamido)-3,4-dihydro-2H-benzo[e][1,2]oxaborinine-8-carboxylic Acid]",> 128,> 128
"Nc1nc(/C(=N/OCCCBr)C(=O)N[C@H]2Cc3cccc(C(=O)O)c3OB2O)cs1 [Example 116, (R,Z)-3-(2-(2-aminothiazol-4-yl)-2-((3-bromopropoxy)imino)acetamido)-2-hydroxy-3,4-dihydro-2H-benzo[e][1,2]oxaborinine-8-carboxylic Acid]",> 128,> 128
"O=C(N[C@H]1Cc2cccc(C(=O)O)c2OB1O)/C(=N\O)c1cscn1 [Example 90, (R,Z)-2-hydroxy-3-(2-(hydroxyimino)-2-(thiazol-4-yl)acetamido)-3,4-dihydro-2H-benzo[e][1,2]oxaborinine-8-carboxylic Acid]",< 64,64 to 128
"O=C(O)CNc1nc(/C(=N/O)C(=O)N[C@H]2Cc3cccc(C(=O)O)c3OB2O)cs1 [Example 108, (R,Z)-3-(2-(2-((carboxymethyl)amino)thiazol-4-yl)-2-(hydroxyimino)acetamido)-2-hydroxy-3,4-dihydro-2H-benzo[e][1,2]oxaborinine-8-carboxylic Acid]",> 128,> 128
"Nc1nc(/C(=N/O)C(=O)N[C@H]2Cc3cc(O)cc(C(=O)O)c3OB2O)cs1 [Example 43, (R,Z)-3-(2-(2-aminothiazol-4-yl)-2-(hydroxyimino)acetamido)-2,6-dihydroxy-3,4-dihydro-2H-benzo[e][1,2]oxaborinine-8-carboxylic Acid]",< 64,64 to 128
"Nc1nc(/C(=N/O)C(=O)N[C@H]2Cc3ccc(/C=C/C(=O)O)c(C(=O)O)c3OB2O)cs1 [Example 27, (R)-3-((Z)-2-(2-aminothiazol-4-yl)-2-(hydroxyimino)acetamido)-7-((E)-2-carboxyvinyl)-2-hydroxy-3,4-dihydro-2H-benzo[e][1,2]oxaborinine-8-carboxylic Acid]",> 128,64 to 128
"CO/N=C(/C(=O)N[C@H]1Cc2cccc(C(=O)O)c2OB1O)c1cccnc1 [Example 3, (R,E)-2-hydroxy-3-(2-(methoxyimino)-2-(pyridin-3-yl)acetamido)-3,4-dihydro-2H-benzo[e][1,2]oxaborinine-8-carboxylic Acid]",> 128,> 128
"Nc1nc(/C(=N/O)C(=O)N[C@H]2Cc3ccc(O)c(C(=O)O)c3OB2O)cs1 [Example 21, (R,Z)-3-(2-(2-aminothiazol-4-yl)-2-(hydroxyimino)acetamido)-2,7-dihydroxy-3,4-dihydro-2H-benzo[e][1,2]oxaborinine-8-carboxylic Acid]",64 to 128,> 128
"Nc1ncc(C(=NO)C(=O)N[C@H]2Cc3cccc(C(=O)O)c3OB2O)s1 (stereo in doubt) [Example 95, (R,Z)-3-(2-(2-aminothiazol-5-yl)-2-(hydroxyimino)acetamido)-2-hydroxy-3,4-dihydro-2H-benzo[e][1,2]oxaborinine-8-carboxylic Acid]",< 64,> 128
"COc1ccc(CSc2nc(/C(=N/O)C(=O)N[C@H]3Cc4cccc(C(=O)O)c4OB3O)cs2)cc1 [Example 92, (R,Z)-2-hydroxy-3-(2-(hydroxyimino)-2-(2-((4-methoxybenzyl)thio)thiazol-4-yl)acetamido)-3,4-dihydro-2H-benzo[e][1,2]oxaborinine-8-carboxylic Acid]",< 64,> 128
"CS(=O)(=O)NCCO/N=C(\C(=O)N[C@H]1Cc2cccc(C(=O)O)c2OB1O)c1csc(N)n1 [Example 120, (R,Z)-3-(2-(2-aminothiazol-4-yl)-2-((2-(methylsulfonamido)ethoxy)imino)acetamido)-2-hydroxy-3,4-dihydro-2H-benzo[e][1,2]oxaborinine-8-carboxylic Acid]",> 128,64 to 128
"Nc1nc(/C(=N/O)C(=O)N[C@H]2Cc3cc(F)cc(C(=O)O)c3OB2O)cs1 [Example 32, (R,Z)-3-(2-(2-aminothiazol-4-yl)-2-(hydroxyimino)acetamido)-6-fluoro-2-hydroxy-3,4-dihydro-2H-benzo[e][1,2]oxaborinine-8-carboxylic Acid]",< 64,< 64
"NCCNC(=O)CO/N=C(\C(=O)N[C@H]1Cc2cccc(C(=O)O)c2OB1O)c1csc(N)n1 [Example 54, (R,Z)-3-(2-((2-((2-aminoethyl)amino)-2-oxoethoxy)imino)-2-(2-aminothiazol-4-yl)acetamido)-2-hydroxy-3,4-dihydro-2H-benzo[e][1,2]oxaborinine-8-carboxylic Acid]",> 128,< 64
"CC(C)CO/N=C(\C(=O)N[C@H]1Cc2cccc(C(=O)O)c2OB1O)c1csc(N)n1 [Example 100, (R,Z)-3-(2-(2-aminothiazol-4-yl)-2-(isobutoxyimino)acetamido)-2-hydroxy-3,4-dihydro-2H-benzo[e][1,2]oxaborinine-8-carboxylic Acid]",< 64,< 64
"O=C(N[C@H]1Cc2cccc(C(=O)O)c2OB1O)C(=NO)c1csc(-n2ccnc2)n1 [Example 93, (R)-3-(2-(2-(1H-imidazol-1-yl)thiazol-4-yl)-2-(hydroxyimino)acetamido)-2-hydroxy-3,4-dihydro-2H-benzo[e][1,2]oxaborinine-8-carboxylic Acid]",< 64,> 128
"Nc1nc(/C(=N/OCCCCl)C(=O)N[C@H]2Cc3cccc(C(=O)O)c3OB2O)cs1 [Example 115, (R,Z)-3-(2-(2-aminothiazol-4-yl)-2-((3-chloropropoxy)imino)acetamido)-2-hydroxy-3,4-dihydro-2H-benzo[e][1,2]oxaborinine-8-carboxylic Acid]",> 128,< 64
"N=C(N)Nc1nc(/C(=N/O)C(=O)N[C@H]2Cc3cccc(C(=O)O)c3OB2O)cs1 [Example 11, (R,Z)-3-(2-(2-guanidinothiazol-4-yl)-2-(hydroxyimino)acetamido)-2-hydroxy-3,4-dihydro-2H-benzo[e][1,2]oxaborinine-8-carboxylic Acid]",< 64,> 128
"Nc1nc(/C(=N/OCCO)C(=O)N[C@H]2Cc3cccc(C(=O)O)c3OB2O)cs1 [Example 13, (R,Z)-3-(2-(2-aminothiazol-4-yl)-2-((2-hydroxyethoxy)imino)acetamido)-2-hydroxy-3,4-dihydro-2H-benzo[e][1,2]oxaborinine-8-carboxylic Acid]",64 to 128,> 128
"NCCO/N=C(\C(=O)N[C@H]1Cc2cccc(C(=O)O)c2OB1O)c1csc(N)n1 [Example 105, (R,Z)-3-(2-((2-aminoethoxy)imino)-2-(2-aminothiazol-4-yl)acetamido)-2-hydroxy-3,4-dihydro-2H-benzo[e][1,2]oxaborinine-8-carboxylic Acid]",> 128,< 64
"CC(=O)NCCO/N=C(\C(=O)N[C@H]1Cc2cccc(C(=O)O)c2OB1O)c1csc(N)n1 [Example 119, (R,Z)-3-(2-((2-acetamidoethoxy)imino)-2-(2-aminothiazol-4-yl)acetamido)-2-hydroxy-3,4-dihydro-2H-benzo[e][1,2]oxaborinine-8-carboxylic Acid]",> 128,64 to 128
"Nc1nc(/C(=C\c2cccnc2)C(=O)N[C@H]2Cc3cccc(C(=O)O)c3OB2O)cs1 [Example 86, (R,E)-3-(2-(2-aminothiazol-4-yl)-3-(pyridin-3-yl)acrylamido)-2-hydroxy-3,4-dihydro-2H-benzo[e][1,2]oxaborinine-8-carboxylic Acid]",64 to 128,< 64
